ChEMBL document CHEMBL1134086, “Discovery of potent and selective phenylalanine derived CCR3 receptor antagonists. Part 2” (Bioorg Med Chem Lett, 2001)

target: T1, C-C chemokine receptor type 3 (Homo sapiens, UniProt P51677); assay: Antagonist activity against C-C chemokine receptor type 3; type: functional
T1 sequence (P51677 whole entry): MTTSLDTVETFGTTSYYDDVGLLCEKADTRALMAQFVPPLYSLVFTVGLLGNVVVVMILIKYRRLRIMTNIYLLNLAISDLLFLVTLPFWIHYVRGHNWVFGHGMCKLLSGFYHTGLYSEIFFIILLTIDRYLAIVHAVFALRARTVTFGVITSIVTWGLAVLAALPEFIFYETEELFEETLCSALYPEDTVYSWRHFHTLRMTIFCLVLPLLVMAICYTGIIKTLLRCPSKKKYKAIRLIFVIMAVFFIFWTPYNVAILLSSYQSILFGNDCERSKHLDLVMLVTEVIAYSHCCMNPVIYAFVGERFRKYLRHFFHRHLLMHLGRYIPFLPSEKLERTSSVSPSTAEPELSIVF

| Compound | IC50 |
| --- | --- |
| CCOC(=O)C1COC([C@H](Cc2ccc([N+](=O)[O-])cc2)NC(=O)c2cccc3ccccc23)=N1 (some centres not stated) | 213 nM |
| O=C(Nc1ccccc1)c1csc([C@H](Cc2ccc([N+](=O)[O-])cc2)NC(=O)c2cccc3ccccc23)n1 | 7700 nM |
| O=C(N[C@@H](Cc1ccc([N+](=O)[O-])cc1)c1ncco1)c1cccc2ccccc12 (racemic) | > 33000 nM |
| CCn1ccnc1[C@H](Cc1ccc([N+](=O)[O-])cc1)NC(=O)c1cccc2ccccc12 (racemic; form 2) | > 33000 nM |
| O=C(CNC(=O)[C@H](Cc1ccc([N+](=O)[O-])cc1)NC(=O)c1cccc2ccccc12)Nc1ccccc1 | 400 nM |
| CCOC(=O)c1coc([C@H](Cc2ccc([N+](=O)[O-])cc2)NC(=O)c2cccc3ccccc23)n1 | 500 nM |
| O=C(N[C@@H](Cc1ccc([N+](=O)[O-])cc1)c1nnco1)c1cccc2ccccc12 (racemic) | > 33000 nM |
| O=C(N[C@@H](Cc1ccc([N+](=O)[O-])cc1)C1=NCCO1)c1cccc2ccccc12 | 563 nM |
| O=C(N[C@@H](Cc1ccc([N+](=O)[O-])cc1)c1nc(C(=O)N2CCc3ccccc3C2)cs1)c1cccc2ccccc12 | 12500 nM |
| O=C(N[C@@H](Cc1ccc([N+](=O)[O-])cc1)c1cnco1)c1cccc2ccccc12 (racemic) | 22500 nM |
| CC(NC(=O)[C@H](Cc1ccc([N+](=O)[O-])cc1)NC(=O)c1cccc2ccccc12)C(=O)N1CCCC1 (some centres not stated) | 1130 nM |
| CCOC(=O)c1csc([C@H](Cc2ccc([N+](=O)[O-])cc2)NC(=O)c2cccc3ccccc23)n1 | 663 nM |
| C=C(NC(=O)[C@H](Cc1ccc([N+](=O)[O-])cc1)NC(=O)c1cccc2ccccc12)C(=O)OCC | 350 nM |
| O=C(N[C@@H](Cc1ccc([N+](=O)[O-])cc1)c1nccs1)c1cccc2ccccc12 | 32000 nM |
| C[C@@H](C(=O)Nc1ccccc1)N(C)C(=O)[C@H](Cc1ccc([N+](=O)[O-])cc1)NC(=O)c1cccc2ccccc12 | 65 nM |
| CCNC(=O)c1csc([C@H](Cc2ccc([N+](=O)[O-])cc2)NC(=O)c2cccc3ccccc23)n1 | 18000 nM |
| CCn1ccnc1[C@H](Cc1ccc([N+](=O)[O-])cc1)NC(=O)c1cccc2ccccc12 (racemic; form 1) | > 33000 nM |
| CCn1ccnc1[C@H](Cc1ccc([N+](=O)[O-])cc1)NC(=O)c1cccc2ccccc12 (racemic; form 3) | 17000 nM |
| O=C(N[C@@H](Cc1ccc([N+](=O)[O-])cc1)C(=O)N[C@H](C(=O)Nc1ccccc1)c1ccccc1)c1cccc2ccccc12 | 116 nM |

Other lines, results leading:

| IC50 | Compound |
| --- | --- |
| 20 nM | C[C@@H](NC(=O)[C@H](Cc1ccc([N+](=O)[O-])cc1)NC(=O)c1cccc2ccccc12)C(=O)OC(C)(C)C |
| 383 nM | CCOC(=O)[C@H](C)NC(=O)[C@H](Cc1ccc([N+](=O)[O-])cc1)NC(=O)c1cccc2ccccc12 |
| 3 nM | CCOC(=O)[C@@H](C)NC(=O)[C@H](Cc1ccc([N+](=O)[O-])cc1)NC(=O)c1cccc2ccccc12 |
| 5 nM | C[C@H](NC(=O)[C@H](Cc1ccc(Cl)cc1)NC(=O)c1cccc2ccccc12)C(=O)Nc1ccccc1 |
| 300 nM | CC(NC(=O)[C@H](Cc1ccc([N+](=O)[O-])cc1)NC(=O)c1cccc2ccccc12)C(=O)NCc1ccccc1 (some centres not stated) |
| 45 nM | Cc1ccc(C(=O)N[C@@H](Cc2ccc(Cl)cc2)C(=O)N[C@@H](C)C(=O)Nc2ccc(Cl)cc2)c(C)c1 |
| 90 nM | COc1ccc(NC(=O)[C@H](C)NC(=O)[C@H](Cc2ccc(C#N)cc2)NC(=O)c2cccc3ccccc23)cc1 |
| 600 nM | C[C@H](NC(=O)[C@H](Cc1ccc([N+](=O)[O-])cc1)NC(=O)c1cccc2ccccc12)C(=O)N(C)c1ccccc1 |
| 500 nM | COc1ccc(NC(=O)[C@H](C)NC(=O)[C@H](Cc2cscn2)NC(=O)c2cccc3ccccc23)cc1 |
| 27 nM | C[C@H](NC(=O)[C@H](Cc1ccc(Cl)cc1)NC(=O)c1cccc2ccccc12)C(=O)Nc1cccnc1 |
| 190 nM | C[C@H](NC(=O)[C@H](Cc1ccc([N+](=O)[O-])cc1)NC(=O)c1cccc2ccccc12)C(=O)Nc1ccccc1 |
| > 1220 nM | COc1ccc(NC(=O)[C@H](C)NC(=O)[C@H](Cc2ccncc2)NC(=O)c2cccc3ccccc23)cc1 |
| 250 nM | COc1ccc(C[C@H](NC(=O)c2cccc3ccccc23)C(=O)N[C@@H](C)C(=O)Nc2ccc(C#N)cc2)cc1 |
| 666 nM | CCNC(=O)C(C)NC(=O)[C@H](Cc1ccc([N+](=O)[O-])cc1)NC(=O)c1cccc2ccccc12 (some centres not stated) |
| 15 nM | COc1ccc(C[C@H](NC(=O)c2cccc3ccccc23)C(=O)N[C@@H](C)C(=O)Nc2ccccc2OC)cc1 |
| 45 nM | COc1ccc(NC(=O)[C@H](C)NC(=O)[C@H](Cc2ccc(Cl)cc2)NC(=O)c2cccc3ccccc23)cc1 |
| 125 nM | COc1ccccc1NC(=O)[C@H](C)NC(=O)[C@H](Cc1ccc(C#N)cc1)NC(=O)c1cccc2ccccc12 |
| 600 nM | C[C@H](NC(=O)[C@H](Cc1ccncc1)NC(=O)c1cccc2ccccc12)C(=O)Nc1ccc(-c2ccccc2)cc1 |
| 700 nM | COc1ccc(NC(=O)[C@H](C)NC(=O)[C@H](CC2CCCCC2)NC(=O)c2cccc3ccccc23)cc1 |
| 800 nM | C[C@H](NC(=O)[C@H](Cc1cscn1)NC(=O)c1cccc2ccccc12)C(=O)Nc1ccc(Cl)cc1 |

organism: Homo sapiens; assay: Ability to block the eotaxin induced intracellular calcium mobilization in primary human eosinophils was determined; type: functional

| IC50 | Compound |
| --- | --- |
| 15 nM | C[C@H](NC(=O)[C@H](Cc1ccc(Cl)cc1)NC(=O)c1cccc2ccccc12)C(=O)Nc1ccccc1 |
| 600 nM | O=C(N[C@@H](Cc1ccc([N+](=O)[O-])cc1)C1=NCCO1)c1cccc2ccccc12 |
| 38 nM | COC(=O)[C@H](Cc1ccc([N+](=O)[O-])cc1)NC(=O)c1cccc2ccccc12 |
